Laboratory results: patent US11299485B2, “Thiophene derivative and use thereof” (FUJIMOTO CO., LTD., priority 2018, dated 2022)

Key:
Assay type in all cases: cell-based
MM.1S cells = test: Human myeloma cell line MM.1S proliferation suppression test; settings: MM1.S, 72 h, compound 10 μM, 3 days, WST-1 or WST-8, read-out: cell survival rate (% of control) MM.1S
Protocol: Example 51: Human Myeloma Cell Line MM.1S Proliferation Suppression Test
MM.1S cells (ATCC, CRL-2974) were suspended in 10% fetal calf serum (Thermo Fisher Scientific)-containing RPMI1640 medium (ATCC, hereinafter abbreviated as medium B), and diluted as appropriate with 0.4% trypan blue solution (Sigma-Aldrich Co. LLC.). The number of viable cells was counted with a hemocytometer (ERMA INC.). It was diluted with medium B such that the value obtained was 2×10^5 cells/mL. On the other hand, 50 μL of a solution obtained by diluting 4 mM DMSO solution of the test compound 200-fold with medium B was added to each well of a Falcon 96-well flat bottom plate (Corning Incorporated), and the above-mentioned cell suspension was dispensed at 50 μL/well (final concentration of test compound 10 μM). 50 μL of a solution obtained by diluting DMSO 200-fold with medium B was added to the control well. After culturing at 37° C. in a 5% CO2 stream for 3 days, the cell proliferation activity was measured using WST-1 (DOJINDO LABORATORIES) or WST-8 Kit (KISHIDA CHEMICAL Co., Ltd.) and according to each instruction manual attached thereto.

REC-1 cells = test: Human mantle cell lymphoma cell line REC-1 proliferation suppression test; settings: Rec1, 72 h, compound 10 μM, 3 days, WST-8, read-out: cell survival rate (% of control) REC-1
Protocol: Example 53: Human Mantle Cell Lymphoma Cell Line REC-1 Proliferation Suppression Test
(§1) REC-1 cells (ATCC, CRL-3004) were suspended in medium B, and diluted as appropriate with 0.4% trypan blue solution (Sigma-Aldrich Co. LLC.). The number of viable cells was counted with a hemocytometer (Funakoshi Co., Ltd.). A cell suspension obtained by diluting with medium B such that the value obtained was 1.3×10^5 cells/mL was dispensed into a Falcon 96 well flat bottom plate (Corning Incorporated) at 75 μL/well, and culture was started at 37° C. under 5% CO2 stream. The next day, a solution obtained by diluting 4 mM DMSO solution of the test compound 100-fold with medium B was added by 25 μL to each well (final concentration of test compound 10 μM). 25 μL of a solution obtained by diluting DMSO 100-fold with medium B was added to the control well. After culturing at 37° C. in a 5% CO2 stream for 3 days, the cell proliferation activity was measured according to the instruction manual attached to WST-8 Kit (KISHIDA CHEMICAL Co., Ltd.).

Pfeiffer cells = test: Human diffuse large B-cell lymphoma cell line Pfeiffer proliferation suppression test; settings: 144 h, compound 10 μM, 3 days + re-plating with compound 3 days, WST-8, read-out: cell survival rate (% of control) Pfeiffer
Excerpt: Example 52: Human Diffuse Large B-Cell Lymphoma Cell Line Pfeiffer Proliferation Suppression Test
Pfeiffer cells (ATCC, CRL-2632) were suspended in medium B, and diluted as appropriate with 0.4% trypan blue solution (Sigma-Aldrich Co. LLC.). The number of viable cells was counted with a hemocytometer (Funakoshi Co., Ltd.). A cell suspension obtained by diluting with medium B such that the value obtained was 1.3×10^5 cells/mL was dispensed into a Falcon 96 well flat bottom plate (Corning Incorporated) at 75 μL/well, and culture was started at 37° C. under 5% CO2 stream. The next day, a solution obtained by diluting 4 mM DMSO solution of the test compound 100-fold with medium B was added by 25 μL to each well (final concentration of test compound 10 μM). 25 μL of a solution obtained by diluting DMSO 100-fold with medium B was added to the control well. After culturing at 37° C. in a 5% CO2 stream for 3 days, the cell culture medium was uniformly suspended with a multi channel pipette, 14 μL per well was transferred into another new Falcon 96 well flat bottom plate. A solution obtained by diluting 4 mM DMSO solution of the same test compound as the first time 400-fold with medium B was added by 86 μL to a total amount of 100 μL (final concentration of test compound 10 μM). After culturing at 37° C. in a 5% CO2 stream for 3 days, the cell proliferation activity was measured according to the instruction manual attached to WST-8 Kit (KISHIDA CHEMICAL Co., Ltd.).

Kasumi-7 cells = test: Human acute lymphoblastic leukemia cell line Kasumi-7 proliferation suppression test; settings: 72 h, compound 10 μM, 3 days, WST-8, read-out: cell survival rate (% of control) Kasumi-7
Excerpt: Example 55: Human Acute Lymphoblastic Leukemia Cell Line Kasumi-7 Proliferation Suppression Test
Kasumi-7 cells (NIBIOHN, JCRB1401) were suspended in 20% fetal calf serum (Thermo Fisher Scientific, Inc.)-containing RPMI1640 medium (ATCC, hereinafter abbreviated as medium C), and diluted as appropriate with 0.4% trypan blue solution (Sigma-Aldrich Co. LLC.). The number of viable cells was counted with a hemocytometer (Funakoshi Co., Ltd.). A cell suspension obtained by diluting with medium C such that the value obtained was 1.3×10^5 cells/mL was dispensed into a Falcon 96 well flat bottom plate (Corning Incorporated) at 75 μL/well, and culture was started at 37° C. under 5% CO2 stream. The next day, a solution obtained by diluting 4 mM DMSO solution of the test compound 100-fold with medium C was added by 25 μL to each well (final concentration of test compound 10 μM). 25 μL of a solution obtained by diluting DMSO 100-fold with medium C was added to the control well. After culturing at 37° C. in a 5% CO2 stream for 3 days, the cell proliferation activity was measured according to the instruction manual attached to WST-8 Kit (KISHIDA CHEMICAL Co., Ltd.).

Daudi cells = test: Human Burkitt lymphoma cell line Daudi proliferation suppression test; settings: 72 h, compound 10 μM, 3 days, WST-8, read-out: cell survival rate (% of control) Daudi
Excerpt: Example 54: Human Burkitt Lymphoma Cell Line Daudi Proliferation Suppression Test
as §1, with “Daudi” for “REC-1”, “(National Institutes of Biomedical Innovation, Health and Nutrition (NIBIOHN), JCRB9071)” for “(ATCC, CRL-3004)”, “(ERMA INC.).” for “(Funakoshi Co., Ltd.).”

## O=C1CCC(N2C(=O)c3ccccc3C2=O)C(=O)N1 (centres unmarked) [Thalidomide, reference compound]
MM.1S cells
  viability at 10 µM: 79%
REC-1 cells
  viability at 10 µM: 94%
Pfeiffer cells
  viability at 10 µM: 104%
Kasumi-7 cells
  viability at 10 µM: 96%
Daudi cells
  viability at 10 µM: 81%
